Source: patent US20140000883A1, “PETROLEUM RECOVERY PROCESS AND SYSTEM” (Shell Oil Company, priority 2012, published 2014)

How the values were obtained:
[1] = Extraction of mined oil sands with solvents (bitumen recovery); conditions: for Recovered Bitumen: not corrected for residual solvent;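 as to Recovered Bitumen: Bitumen mass includes 3 to 7 wt% residual solvent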
Protocol: The quality of dimethyl sulfide as an oil recovery agent based on the miscibility of dimethyl sulfide with a crude oil relative to other compounds was evaluated. […] Each oil sands sample was weighed and placed in a cellulose extraction thimble that was placed on a porous polyethylene support disk in a jacketed glass cylinder with a drip rate control valve. Each oil sands sample was then extracted with a selected solvent at a selected temperature (10° C. or 30° C.) in a cyclic contact and drain experiment, where the contact time ranged from 15 to 60 minutes. Fresh contacting solvent was applied and the cyclic extraction repeated until the fluid drained from the apparatus became pale brown in color.
The extracted fluids were stripped of solvent using a rotary evaporator and thereafter vacuum dried to remove residual solvent. […] The residual solids and extraction thimble were air dried, weighed, and then vacuum dried. […] Collectively, the weight of the solid or sample and thimble recovered after extraction plus the quantity of bitumen recovered after extraction divided by the weight of the initial oil sands sample plus the thimble provide the mass closure for the extractions.

[2] = Incremental oil recovery from formation core after water-flooding; conditions: after waterflooding with brine
Protocol: Incremental recovery of oil from a formation core using an oil recovery formulation consisting of dimethyl sulfide following oil recovery from the core by water-flooding was measured to evaluate the effectiveness of DMS as a tertiary oil recovery agent.
Two 5.02 cm long Berea sandstone cores with a core diameter of 3.78 cm and a permeability between 925 and 1325 mD were saturated with a brine having a composition as set forth in Table 7.
After saturation of the cores with brine, the brine was displaced by a Middle Eastern Asphaltic crude oil having the characteristics as set forth above in Table 3 to saturate the cores with oil.
Oil was recovered from each oil saturated core by the addition of brine to the core under pressure and by subsequent addition of DMS to the core under pressure. Each core was treated as follows to determine the amount of oil recovered from the core by addition of brine followed by addition of DMS. Oil was initially displaced from the core by addition of brine to the core under pressure. A confining pressure of 1 MPa was applied to the core during addition of the brine, and the flow rate of brine to the core was set at 0.05 ml/min. The core was maintained at a temperature of 50° C. during displacement of oil from the core with brine. […]

Compound: CSC [Dimethyl Sulfide, dimethyl sulfide]
- recovering bitumen from an oil sand material, compared with the best known fluids ([1]; 10° C. and 30° C.): comparable
- Weight Change ([1]; extraction at 10 C.): 16.9 g
- Recovered Bitumen ([1]; extraction at 10 C.): 16.55 g
- Weight Change ([1]; extraction at 30 C.): 16.7 g
- Recovered Bitumen ([1]; extraction at 30 C.): 16.29 g
- oil recovered of the oil remaining in the core after the waterflood [2]: approximately 60%
